Reference: patent publication US10064862B2, “Antiviral axin stabilizer” (priority 2014, dated 2018)
Entries after “also recorded” stand apart in the source; their conditions may differ.

Assays:
[1] = tested on: Axin1; type: in vivo, mouse; settings: oral administration of RN-1 for 24 hours, 50 mg/kg
[2] = tested on: nonO/p54(nrb), SFPQ, and hnRNP M; type: cell-based, human; settings: A549 cells, 20 μM RN-1 24 hours pretreatment, MOI=2
[3] = tested on: H1N1 influenza A/PR/8/34 virus; type: cell-based
[4] = tested on: Axin1; test: Axin1 stabilization in A549 cells (immunostaining, Western blot); type: cell-based, human
[5] = tested on: A549 cells; settings: all the concentrations tested (30-80,000 nM), MTT assay
[6] = tested on: H1N1 influenza A/PR/8/34 virus; test: organism not typed; type: cell-based
[7] = tested on: IFN and IFN-stimulated gene (ISG) expression; test: IFNα1 and MX1 mRNA by Real-time PCR in primary mouse alveolar epithelial cells; type: cell-based
[8] = tested on: herpes simplex virus; settings: previously reported; cited from earlier work
[9] = tested on: H1N1 influenza A/PR/8/34 virus; test: Lethal influenza virus challenge in mice (lung virus titer, survival); type: in vivo, mouse; settings: for survival rate after lethal virus challenge: mice, 1,000 pfu, RN-1 50 mg/kg orally daily, -1 to 2 or 4 dpi
Procedure: Mice were challenged intranasally with a lethal dose (1,000 pfu) of H1N1 influenza A/PR/8/34 virus. […] Control animals received vehicle alone. […] (C) Virus titer in the homogenized infected lungs at 2 dpi was measured by TCID50 assay in MDCK cells and normalized to total protein amount. […] Data shown are means±s.e.m. and tested for statistical significance by Student's t-test. (D) Survival rate. […] Mantel-Cox χ2 test on Kaplan-Meier survival data was used to compare the survival rate between groups.
Male C57BL/6N mice (6-8 week old) were challenged intranasally with a lethal dose (1,000 pfu) of influenza virus A/PR/8/34 H1N1 under anesthesia. […] Control animals were given vehicle alone in the same formulation. All animals were observed daily for body weight loss and clinical signs of disease such as ruffled fur, inactivity and difficulty in breathing until 21 days post infection.
MDCK cells in 96-well plates were infected with serial dilutions (10^−1 to 10^−7) of virus samples in serum-free complete EMEM containing 1 μg/ml TPCK-treated trypsin for 1 hour. The cells were re-fed with the same medium for 4 days. TCID50 values (median tissue culture infective dose) were calculated by the method of Reed and Muench.
The results were analyzed by one-way ANOVA followed with posthoc Tukey's test for multiple comparisons of control and treatment groups, or Student's t-test using GraphPad Prism (version 6). Survival rates between groups were analyzed by Mantel-Cox χ2 test on Kaplan-Meier probability estimates using GraphPad Prism. All results were reported as mean±s.e.m.

[10] = tested on: H1N1 influenza A/PR/8/34 virus; test: Viral gene mRNA in OE-Axin1 HEK293 cells pretreated with inhibitors; type: cell-based
[11] = tested on: ISRE activity; test: ISRE_Luc dual-luciferase assay in OE-Axin1 HEK293 cells pretreated with inhibitors; type: cell-based, human; settings: 10 μM inhibitor, OE-Axin1, MOI=2 for 8 hours
[12] = tested on: Axin1-stimulated IFN response; test: Axin1-stimulated IFN and ISG mRNA in OE-Axin1 HEK293 cells pretreated with inhibitors; type: cell-based, human; settings: OE-Axin1, MOI=2
[13] = tested on: H1N1 influenza A/PR/8/34 virus; type: cell-based; settings: E10 cells, 250 ng/ml rhWnt3a or 50% Wnt3a_CM 24 hours pretreatment, MOI=2 for 18 hours
[14] = tested on: influenza virus A/Puerto Rico/8/1934 H1N1; type: in vivo, mouse; settings: mice, 250 pfu, 50 μl 10× Wnt3a_CM intranasally 4 hours before and 2 days post infection, lungs day 5
[15] = primary mouse alveolar epithelial cells during virus infection, 20 μM RN-1, 12 hpi
[16] = 10 μM inhibitor 6 hours pretreatment

## Oc1nc(-c2ccc(C(F)(F)F)cc2)nc2c1CSCC2 [RN-1, 3,5,7,8-Tetrahydro-2-[4-(trifluoromethyl)phenyl]-4H-thiopyrano[4,3-d]pyrimidin-4-one]
[1]
  Axin1 protein in the mouse lung: successfully stabilized Axin1
[2]
  degradation of nonO/p54(nrb), SFPQ and hnRNP M: stimulated the degradation of all three proteins
[3]
  virus replication (virus titer): notably inhibited; also recorded: significantly inhibited virus replication
[4]
  Axin1 protein during influenza virus infection: Axin1 was not degraded
[5]
  cell viability: did not affect cell viability
[6]
  maximum inhibition of influenza virus replication: over 99%
  virus replication (virus titer in supernatants): significantly attenuated
[6]; A549, 24 h, read-out: EC50 of attenuation of influenza virus replication (virus titers in culture media)
  EC50: 419 nM
[7]; [15]
  mRNA expression of IFNα1: increased the mRNA expression
  mRNA expression of the ISG MX1: increased the mRNA expression
[7]; uninfected cells
  baseline IFN gene expression: had no effects
[8]
  herpes simplex virus replication: inhibit herpes simplex virus replication
[9]
  survival rate after lethal virus challenge: dramatically improved
[9]; listed as XAV939
  survival rate after lethal virus challenge: protected animals from lethal influenza virus challenge
[9]; mouse, in vivo, po
  influenza virus replication in vivo (virus titer in infected lungs at 2 dpi): significantly attenuated

## COc1cc2c(cc1OC)CN(C(=O)/C=C/c1c(-c3ccccc3)n(C)c3ncccc13)CC2 [SIS3]
[10]
  effect on Axin1-mediated attenuation of influenza virus replication (viral gene mRNA): relived Axin1-mediated attenuation of influenza virus replication
[11]
  Axin1-stimulated ISRE activity: the same inhibitory effect
[12]; [16]
  Axin1-stimulated IFN mRNA expression (IFNβ1, IFNα1, IFNα7, IFNλ1): the same inhibitory effect on Axin1-elevated anti-viral machinery except IFNβ1 synthesis (FIG. 7A) and MX1 expression (FIG. 7E); also recorded: only inhibited Axin1-induced expression of IFNα but not IFNβ1
  Axin1-stimulated ISGs expression (OAS1, MX1, IP10): the same inhibitory effect on Axin1-elevated anti-viral machinery except IFNβ1 synthesis (FIG. 7A) and MX1 expression (FIG. 7E)
[12]; 10 μM inhibitor
  Axin1-regulated Type I and Type III IFN synthesis: the same inhibitory effect in both scenarios

B1: Wnt3a: activator of Wnt/β-catenin signaling, given as rhWnt3a or Wnt3a_CM (protein, UniProt P56704 19-352, looked up)
Protein Wnt-3a: SYPIWWSLAVGPQYSSLGSQPILCASIPGLVPKQLRFCRNYVEIMPSVAEGIKIGIQECQHQFRGRRWNCTTVHDSLAIFGPVLDKATRESAFVHAIASAGVAFAVTRSCAEGTAAICGCSSRHQGSPGKGWKWGGCSEDIEFGGMVSREFADARENRPDARSAMNRHNNEAGRQAIASHMHLKCKCHGLSGSCEVKTCWWSQPDFRAIGDFLKDKYDSASEMVVEKHRESRGWVETLRPRYTYFKVPTERDLVYYEASPNFCEPNPETGSFGTRDRTCNVSSHGIDGCDLLCCGRGHNARAERRREKCRCVFHWCCYVSCQECTRVYDVHTCK
[13]
  virus replication in vitro (viral gene mRNA): dramatically promotes virus replication
[14]
  virus replication in vivo (viral gene mRNA in lungs): dramatically promotes virus replication
